Square brackets hold non-standard residues; d marks the D form.
B1: human β2-GPI: commercially-available human β2-GPI (SEQ ID NO. 15), whole molecule (protein, listed as Homo sapiens)
chain: MISPVLILFSSFLCHVAIAGRTCPKPDDLPFSTVVPLKTFYEPGEEITYSCKPGYVSRGGMRKFICPLTGLWPINTLKCTPRVCPFAGILENGAVRYTTFEYPNTISFSCNTGFYLNGADSAKCTEEGKWSPELPVCAPIICPPPSIPTFATLRVYKPSAGNNSLYRDTAVFECLPQHAMFGNDTITCTTHGNWTKLPECREVKCPFPSRPDNGFVNYPAKPTLYYKDKATFGCHDGYSLDGPEEIECTKLGNWSAMPSCKASCKVPVKKATVVYQGERVKIQEKFKNGMLHGDKVSFFCKNKEKKCSYTEDAQCIDGTIEVPKCFKEHSSLAFWKTDASDVKPC

What was measured:
LTB4 = assay: Intestinal IR, ex vivo LTB4 generation; assay type: in vivo, mouse; conditions: C57Bl/6 mice, peptide 40 μM prior to IR
Protocol: (§1) C57Bl/6 and Rag-1^−/− mice were subjected to ischemia followed by reperfusion similar to previously described studies (Moses, T. et al., J. Leukoc. Biol. 86:971-980 (2009)). Briefly, ketamine (16 mg/kg) and xylazine (80 mg/kg) were used to anesthetize the mice. Buprenorphine (0.06 mg/kg) was then administered for pain. A midline laparotomy was performed to expose the abdominal cavity of the mice, which were then allowed to equilibrate for 30 min. Body temperature was maintained at 37° C. using a water-circulating heat pad. Placing a warm, saline moistened piece of gauze over the abdominal cavity prevented peritoneal desiccation. […] Ischemia was noted by the intestine changing from a pink color to a gray color. After 30 min of ischemia, the clamp was removed and the intestines were allowed to reperfuse for 5, 10, 15, or 120 min. […] Mice treated with the various β2-GPI peptides underwent the same procedure with i.v. administration of the peptides (40 μM) 5 min prior to artery occlusion. Peptides 296, 305, and 296Cys to Ser were dissolved in N. Saline (0.9% NaCl) and injected i.v. in 100-μL volumes. Peptides 100 and 181 were dissolved in DMSO prior to diluting 1/100 in N. Saline. Additional mice received peptides prior to Sham treatment.
(§2) Ex vivo generation of eicosanoids by mid-jejunal tissue was determined. Immediately after collection, a 2-cm intestinal section from each mouse was minced, washed, resuspended in 37° C. oxygenated Tyrode's buffer (Sigma-Aldrich; St. Louis, Mo.), incubated at 37° C. for 20 minutes, and the supernatant collected. PGE2 and LTB4 concentrations were determined using enzyme immunoassay kits (Cayman Chemical; Ann Arbor, Mich.). IL-6 and IL-12 concentrations were determined using a Milliplex MAP immunoassay kit (Millipore) and read on a Milliplex Analyzer (Millipore). All eicosanoid and cytokine concentrations were standardized to the total tissue protein content.
(§3) Total peroxidase, LTB4, PGE2, IL-6, IL-12p40, and IL-12p70 concentrations were determined using the procedures described in Example 1.

PGE2 = assay: Intestinal IR, ex vivo PGE2 generation; assay type: in vivo, mouse; conditions: C57Bl/6 mice, peptide 40 μM prior to IR
Protocol: C57Bl/6 and Rag-1^−/− mice were subjected to ischemia followed by reperfusion similar to previously described studies (Moses, T. et al., J. Leukoc. Biol. 86:971-980 (2009)). Briefly, ketamine (16 mg/kg) and xylazine (80 mg/kg) were used to anesthetize the mice. Buprenorphine (0.06 mg/kg) was then administered for pain. A midline laparotomy was performed to expose the abdominal cavity of the mice, which were then allowed to equilibrate for 30 min. Body temperature was maintained at 37° C. using a water-circulating heat pad. Placing a warm, saline moistened piece of gauze over the abdominal cavity prevented peritoneal desiccation. […] Ischemia was noted by the intestine changing from a pink color to a gray color. After 30 min of ischemia, the clamp was removed and the intestines were allowed to reperfuse for 5, 10, 15, or 120 min. […] Peptides 296, 305, and 296Cys to Ser were dissolved in N. Saline (0.9% NaCl) and injected i.v. in 100-μL volumes. Peptides 100 and 181 were dissolved in DMSO prior to diluting 1/100 in N. Saline. Additional mice received peptides prior to Sham treatment.
as §2, §3

C57Bl/6 mice [1] = assay: Intestinal ischemia/reperfusion, mucosal injury score; assay type: in vivo, mouse; conditions: C57Bl/6 mice, peptide 40 μM i.v. 5 min prior to ischemia, 2 hours reperfusion
Protocol: as §1
Immediately after euthanasia, a 2-cm mid jejunum tissue section was immediately fixed in 10% buffered formalin, embedded in paraffin, and 8 μm sections were cut transversely and hematoxylin and eosin (H&E) stained. Mucosal injury was graded on a six-tiered scale, as described previously (Fleming, S. D. et al., J. Immunol. 169:2126-2133 (2002)). Briefly, the average damage score of the intestinal section (75-150 villi) was determined after grading each villus. […] Photomicrographs were obtained from H&E stained slides using a 20×, 0.5 Plan Fluor objective on a Nikon 80i microscope and images acquired at room temperature using a Nikon DS-5M camera with DS-L2 software.
Ischemia/reperfusion was performed on ketamine/xylazine anesthetized mice as described in Example 1 above. After 2 hours of reperfusion, the mice were euthanized and sera, liver, spleen, and 2 cm sections of the small intestine, approximately 10 cm distal to the gastroduodenal junction, were collected for histological and other analyses. Mice treated with the various β2-GPI peptides underwent the same procedure with i.v. administration of the peptides. Most studies assumed 2 mL total blood volume in a mouse and administered peptides to a final concentration of 40 μM at 5 min prior to ischemia. Dose response studies administered 1-40 μM peptide at 5 min prior to ischemia and time course studies administered 40 μM peptide at 5 min prior to ischemia, and at 15-, 30- or 60-min post-ischemia (i.e., during reperfusion).
After euthanasia, tissue sections were fixed and stained following the procedures outlined in Example 1. Mucosal injury (SMI) was also graded on a six-tiered scale, as described in Example 1.

C3 = assay: Intestinal IR, C3 deposition immunohistochemistry; assay type: in vivo, mouse; conditions: C57Bl/6 mice, peptide infused prior to IR
Protocol: as §1
After euthanasia, an additional 2-cm intestinal section from each mouse was immediately snap frozen in O.C.T. freezing medium and 8 μm sections were placed on slides for immunohistochemistry. The C3 deposition and F4/80 expression on the tissue sections were detected by staining with a purified rat-anti-mouse C3 (Hycult Biotechnologies; Plymouth Meeting, Pa.) or F4/80 (eBioscience; San Diego, Calif.) antibody followed by a Texas-red conjugated donkey-anti-rat IgG secondary antibody (Jackson Immunoresearch). CD31 (PECAM-1) and CD106 (VCAM-1) were detected by FITC conjugated rat anti-mouse CD31 or CD106 (Biolegend; San Diego, Calif.) antibodies. Each experiment contained serial sections stained with the appropriate isotype control antibodies. All slides were mounted with ProLong Gold (Invitrogen). Images were obtained at room temperature using a Nikon Eclipse 80i microscope equipped with a CoolSnap CF camera (Photometrics) and analyzed using Metavue software (Molecular Devices). The fluorescence was semi-quantitated using Image J software (NIH) using the fluorescent area fraction after setting threshold for each experiment. The average of the isotype control was subtracted from each photo.

[2] = tested on: thioglycollate-elicited macrophages, nitric oxide; assay: β2-GPI stimulated macrophage nitric oxide production; assay type: cell-based; conditions: mouse β2-GPI 10 μg/mL, peptide 40 μM, 18 hours
Protocol: C57Bl/6 mice were injected i.p. with 1 mL thioglycollate (4%) 4 days prior to peritoneal lavage. Peritoneal exudate macrophages or the B cell line, LK35.2, were seeded at 2×10^6 cells/mL in 24-well or 96-well plates. After macrophage adherence, both cell types were treated with mouse β2-GPI (10 μg/mL) with or without peptide (40 μM). Additional cells were unstimulated as a negative control or stimulated with 10 μg/mL LPS (E. coli 055B5) as a positive control. Supernatants were collected 18-20 hours after stimulation and analyzed for nitrite by Griess reagent (Hoffman & Fleming, Cell Biochem. Funct. 28:686-694 (2010)) or IL-6 by Milliplex MAP kit (Millipore) following the manufacturer's instructions using a Luminex 200 with xPONENT 3.1 and Analyst software (Millipore).

C57Bl/6 mice [3] = assay: Intestinal ischemia/reperfusion, mucosal injury score; assay type: in vivo, mouse; conditions: Example 3, human β2-GPI in N. saline at 0.5-μg, 1-μg and 5-μg

Row | Molecule | IR-induced intestinal LTB4 production (LTB4) | IR-induced intestinal PGE2 production (PGE2) | IR-induced intestinal mucosal damage (injury score) (C57Bl/6 mice [1]) | C3 deposition / complement activation after IR (C3) | β2-GPI-induced nitric oxide production [2] | IR-induced intestinal injury (C57Bl/6 mice [3])
1 | H-SSYTVEAHS-OH (H-[dS][dS][dY][dT][dV][dE][dA][dH][dS]-OH; SMILES CC(C)[C@@H](NC(=O)[C@H](NC(=O)[C@@H](Cc1ccc(O)cc1)NC(=O)[C@@H](CO)NC(=O)[C@H](N)CO)[C@H](C)O)C(=O)N[C@H](CCC(=O)O)C(=O)N[C@H](C)C(=O)N[C@H](Cc1c[nH]cn1)C(=O)N[C@H](CO)C(=O)O) [peptide D-p9, p9 synthesized with D-amino acids] | did not | attenuated | attenuated | – | – | –
2 | H-SHAEVTYSS-OH (H-[dS][dH][dA][dE][dV][dT][dY][dS][dS]-OH; also: retro-inverso) [peptide Retro-inverso D-p9, 13] | attenuated | attenuated | attenuated | few to no C3 deposits | – | –
3 | H-SSYTVEAHS-NH2 [peptide p9, 12] | attenuated | attenuated | attenuated | significantly less deposition | significantly attenuated | –
4 | H-SKNKEKK-NH2 [peptide p7, 11] | – | returned PGE2 concentrations to those found in Sham treated animals | attenuate actual epithelial injury more effectively | – | – | –
5 | H-GNDTVMCTEQQN-NH2 [peptide 181, 17, reference compound] | – | – | IR-induced intestinal damage similar to untreated mice | – | – | –
6 | B1 | – | – | – | – | – | effective at attenuating

Reference: patent US8895502B2, “β2-glycoprotein I peptide inhibitors” (Kansas State University Research Foundation, priority 2010, dated 2014)
